Data from PubChem BioAssay (NCI).
Where “and” joins values, the source holds several entries; their conditions need not be identical. Equal values may be shown once.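 Values below derive from 48-hour exposures of cells grown in 96-well plates, with endpoints linearly interpolated between the two concentrations bracketing the appropriate inhibition level. GI50 marks 50% less growth. TGI: total growth inhibition.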

How the values were obtained:
Experiment in all cases: growth of human tumour cells (NCI), 48 h
[1] = tested on: SK-MEL-28 melanoma
[2] = tested on: UACC-62 melanoma
[3] = tested on: LOX IMVI melanoma
[4] = tested on: NCI-H460 lung
[5] = tested on: U251 CNS
[6] = tested on: SF-295 CNS
[7] = tested on: UO-31 renal
[8] = tested on: TK-10 renal
[9] = tested on: EKVX NSCLC
[10] = tested on: BT-549 breast

C/C=C(\C)C(=O)OC1C2C(C)C(=O)OC2C(O)C(C)C2C=CC(=O)C21C (stereo not drawn)
TGI [1]: 28.1 µM | TGI [2]: 26.1 µM | TGI [3]: 28.5 µM | TGI [4]: 20.6 µM | TGI [5]: 24.6 µM | TGI [6]: 32.7 µM | TGI [7]: 32.8 µM | TGI [8]: 26.9 µM | TGI [9]: 38 µM | TGI [10]: 25.2 µM

Cc1ccc(C)c(N2C(=O)C(=O)c3c(C)ccc(C)c32)c1
TGI [1]: > 100 µM | TGI [2]: 34.8 µM | TGI [3]: 31.2 µM | TGI [4]: > 100 µM | TGI [5]: 35.2 µM | TGI [6]: 54.8 µM | TGI [7]: 55.3 µM | TGI [8]: 85 µM | TGI [9]: > 100 µM | TGI [10]: 42.2 µM

CCCN(CCC)c1ccc(/C=N/NC(=O)c2cccnc2)cc1
GI50 [1]: 33.6 µM | TGI [1]: > 100 µM | GI50 [2]: 34.7 µM | TGI [2]: > 100 µM | GI50 [3]: 17.3 µM | TGI [3]: 58.5 µM | GI50 [4]: 30.3 µM | TGI [4]: > 100 µM | GI50 [5]: 26.9 µM | TGI [5]: > 100 µM | GI50 [6]: 16.5 µM | TGI [6]: 55.6 µM | GI50 [7]: 43.3 µM | TGI [7]: > 100 µM | GI50 [8]: 32.4 µM | TGI [8]: > 100 µM | GI50 [9]: 26.8 µM | TGI [9]: > 100 µM | GI50 [10]: 30.7 µM | TGI [10]: > 100 µM

CN1CCN(CCCN2c3ccccc3Sc3ccc(C(F)(F)F)cc32)CC1
TGI [1]: 3.27 µM and 3.46 µM and 3.58 µM | GI50 [2]: 1.57 µM | TGI [2]: 3.08 µM and 4.34 µM and 3.91 µM | GI50 [3]: 1.59 µM | TGI [3]: 3.28 µM and 8.79 µM and 11.2 µM | GI50 [4]: 1.99 µM | TGI [4]: 4.15 µM and 5.21 µM and 12.1 µM | GI50 [5]: 1.7 µM | TGI [5]: 3.56 µM and 18.1 µM and 21.4 µM | GI50 [6]: 1.76 µM | TGI [6]: 3.68 µM and 15.8 µM and 23.2 µM | GI50 [7]: 2.31 µM | TGI [7]: 12 µM and 19.3 µM and 17.6 µM | GI50 [8]: 1.78 µM and 4.01 µM and 11.6 µM | TGI [8]: 3.23 µM and 12.1 µM and 24.8 µM | GI50 [9]: 2.34 µM | TGI [9]: 10.8 µM and 27.9 µM and 28.3 µM | GI50 [10]: 3.71 µM | TGI [10]: 14.5 µM and 29.3 µM and 28.1 µM

COc1cc([N+](=O)[O-])c(OC)cc1-c1nc2n(c1/C(N)=N/C(=N)N)CCS2
GI50 [1]: > 100 µM | TGI [1]: > 100 µM | GI50 [2]: 75.5 µM | TGI [2]: > 100 µM | GI50 [3]: 89.1 µM | TGI [3]: > 100 µM | GI50 [4]: 70.1 µM | TGI [4]: > 100 µM | GI50 [5]: 9.12 µM | TGI [5]: > 100 µM | GI50 [6]: 37.6 µM | TGI [6]: > 100 µM | GI50 [7]: > 100 µM | TGI [7]: > 100 µM | GI50 [8]: 20.3 µM | TGI [8]: 96.4 µM | GI50 [9]: 40.3 µM | TGI [9]: > 100 µM | GI50 [10]: > 100 µM | TGI [10]: > 100 µM

O=c1cc(-c2ccccc2)nc2cc(-c3ccco3)[nH]n12
GI50 [1]: 8.78 µM | TGI [1]: > 100 µM | GI50 [2]: 5.66 µM | TGI [2]: > 100 µM | GI50 [3]: 15.2 µM | TGI [3]: > 100 µM | GI50 [4]: 4.49 µM | TGI [4]: 20.6 µM | GI50 [5]: 4.74 µM | TGI [5]: > 100 µM | GI50 [6]: 3.64 µM | TGI [6]: 25.6 µM | GI50 [7]: 7.92 µM | TGI [7]: 59.8 µM | GI50 [8]: 19.8 µM | TGI [8]: 96.9 µM | GI50 [9]: 15.6 µM | TGI [9]: 78.3 µM | GI50 [10]: 14.8 µM | TGI [10]: > 100 µM

COc1ccc2c(c1)c(-c1nc(-c3cn(C)c4ncccc34)cs1)cn2CCCCN1CCOCC1
GI50 [1]: 1.5 µM | TGI [1]: 2.97 µM | GI50 [2]: 1.62 µM | TGI [2]: 3.44 µM | GI50 [3]: 1.32 µM | TGI [3]: 2.68 µM | GI50 [4]: 1.19 µM | TGI [4]: 2.91 µM | GI50 [5]: 1.25 µM | TGI [5]: 2.93 µM | GI50 [6]: 1.57 µM | TGI [6]: 3.48 µM | GI50 [7]: 1.2 µM | TGI [7]: 2.56 µM | GI50 [8]: 2.73 µM | TGI [8]: 8.19 µM | GI50 [9]: 1.54 µM | TGI [9]: 4.77 µM | GI50 [10]: 2.3 µM | TGI [10]: 10.7 µM

COc1cc(C(=O)Nc2cc(O)c(C/C=C(\C)CCC=C(C)C)c(O)c2)cc2c1O[C@]1(C)CC[C@@H](O)C(C)(C)[C@H]1C2
GI50 [1]: 0.178 µM and 0.629 µM | TGI [1]: 13.8 µM | GI50 [2]: 0.0488 µM and 0.0463 µM | TGI [2]: 0.803 µM and 1.79 µM | GI50 [3]: 0.0626 µM and 0.0809 µM | TGI [3]: 2.7 µM and 1.92 µM | GI50 [4]: 0.083 µM and 0.101 µM | TGI [4]: 13.5 µM | GI50 [5]: 0.00961 µM and < 0.0175 µM | TGI [5]: 6.15 µM | GI50 [6]: 0.00307 µM and < 0.012 µM | TGI [6]: 0.0135 µM and 0.0515 µM | GI50 [7]: 0.0786 µM and 0.237 µM | TGI [7]: 0.6 µM and 1.29 µM | GI50 [8]: 2.54 µM | TGI [8]: 28.9 µM | GI50 [9]: 1.12 µM and 1.16 µM | TGI [9]: 14.8 µM | TGI [10]: 5.23 µM

Nc1ncnc2c1c(C(=O)NO)cn2C1OC(CO)C(O)C1O (stereo not drawn)
GI50 [1]: 0.479 µM | TGI [1]: 3.63 µM | GI50 [2]: 0.32 µM | TGI [2]: 1.19 µM | GI50 [3]: 0.262 µM | TGI [3]: 1.77 µM | GI50 [4]: 0.431 µM | TGI [4]: 9.19 µM | GI50 [5]: 0.419 µM | TGI [5]: > 100 µM | GI50 [6]: 0.193 µM | TGI [6]: 1.13 µM | GI50 [7]: 0.368 µM | TGI [7]: 3.75 µM | GI50 [8]: 0.572 µM | TGI [8]: > 31.4 µM | GI50 [9]: 0.776 µM | TGI [9]: 15.7 µM | GI50 [10]: 0.426 µM | TGI [10]: 19.2 µM

Cc1csc(-c2ccc3c(c2)COC3(CCCN(C)C)c2ccc(F)cc2)c1 (stereo not drawn)
GI50 [1]: 1.77 µM | TGI [1]: 3.3 µM | GI50 [2]: 1.78 µM | TGI [2]: 3.36 µM | GI50 [3]: 1.77 µM | TGI [3]: 3.24 µM | GI50 [4]: 1.9 µM | TGI [4]: 3.5 µM | GI50 [5]: 1.85 µM | TGI [5]: 3.76 µM | GI50 [6]: 1.84 µM | TGI [6]: 3.52 µM | GI50 [7]: 1.46 µM | TGI [7]: 2.79 µM | GI50 [8]: 1.83 µM | TGI [8]: 3.72 µM | GI50 [9]: 1.77 µM | TGI [9]: 3.48 µM | GI50 [10]: 1.6 µM | TGI [10]: 3.2 µM

O=C(Nc1ccc(O)c(NS(=O)(=O)c2ccc(F)cc2)c1)c1ccc(-c2ccccc2)cc1
GI50 [1]: 9.06 µM | TGI [1]: 23.5 µM | GI50 [2]: 7.53 µM | TGI [2]: 28.1 µM | GI50 [3]: 6.18 µM | TGI [3]: 21.1 µM | GI50 [4]: 3.85 µM | TGI [4]: 15.9 µM | GI50 [5]: 9.07 µM | TGI [5]: 26.1 µM | GI50 [6]: 9.71 µM | TGI [6]: 24 µM | GI50 [7]: 3.35 µM | TGI [7]: > 100 µM | GI50 [8]: 11.9 µM | TGI [8]: 30.3 µM | GI50 [9]: 7.17 µM | TGI [9]: 26.4 µM | GI50 [10]: 4.6 µM | TGI [10]: 20.2 µM

Cc1nc2sc(C(=O)Nc3cccc(Cl)c3C)c(N)c2cc1C(=O)c1ccccc1
GI50 [1]: 1.45 µM | TGI [1]: > 50 µM | GI50 [2]: 0.246 µM | TGI [2]: > 50 µM | GI50 [3]: 0.331 µM | TGI [3]: > 50 µM | GI50 [4]: 0.198 µM | TGI [4]: 10.3 µM | GI50 [5]: 0.219 µM | TGI [5]: > 50 µM | GI50 [6]: 0.179 µM | TGI [6]: > 10.6 µM | GI50 [7]: 0.408 µM | TGI [7]: > 50 µM | GI50 [8]: 2.48 µM | TGI [8]: > 50 µM | GI50 [9]: 0.292 µM | TGI [9]: > 50 µM | GI50 [10]: 0.355 µM | TGI [10]: > 13.6 µM

CS(=O)(=O)c1ccc(-c2[nH]c3ccc(F)cc3c2/C=N/NC(N)=S)cc1
GI50 [1]: 12.3 µM | TGI [1]: > 100 µM | GI50 [2]: 0.531 µM | TGI [2]: > 100 µM | GI50 [3]: 0.84 µM | TGI [3]: > 100 µM | GI50 [4]: 2.28 µM | TGI [4]: > 100 µM | GI50 [5]: 0.777 µM | TGI [5]: > 100 µM | GI50 [6]: 0.899 µM | TGI [6]: 13.1 µM | GI50 [7]: 2.84 µM | TGI [7]: > 100 µM | GI50 [8]: 5.88 µM | TGI [8]: > 100 µM | GI50 [9]: 3.94 µM | TGI [9]: > 100 µM | GI50 [10]: 1.61 µM | TGI [10]: 34.4 µM
